From publication PMC11134608, “UBR5 forms ligand-dependent complexes on chromatin to regulate nuclear hormone receptor stability” (Molecular cell, 2023)

Key:
[1] = tested on: androgen receptor (AR); details: testosterone, ref [48]-[50]; cited from earlier work
Source text: Instead, it is shuttled […] the nucleus following agonist binding and transcriptional activation.[48]–[50] The hydrophobic cleft of AR has several amino acid differences from other NRs, which preferentially accommodate bulkier FxxLF motifs instead of the classic LxxLL.[51],[52] We hypothesized that these sequence differences might also prevent UBR5-mediated degradation and asked whether altering the hydrophobic cleft in AR could c ...

[2] = tested on: androgen receptor (AR); assay: AR fluorescent reporter degradation; type: cell-based, human; details: n = 3; for AR reporter degradation, significance: CI-4AS-1 5, 10, 20 uM
Experimental: AR reporters with substitutions to the critical set of residues in the hydrophobic cleft (AR V713, V716, V730, and M734) were generated to match those found in RARA, RXRA, or GR. The wild-type AR reporter was not degraded following treatment with the synthetic AR agonist CI-4AS-1. […] Taken together, the data underscore the essentiality of the NR hydrophobic cleft for UBR5 binding and NR degradation.
Cells were analyzed for GFP vs mCherry expression.

[3] = tested on: AR^RARA mutant and UBR5; assay: Co-immunoprecipitation of UBR5 with AR-RARA mutants; type: cell-based, human; details: ± CI-4AS-1 and MG132
Source text: (§1) Blotting was done as described above.

[4] = tested on: UBR5-ER; assay: In vitro FLAG-UBR5 pull-down of His-tagged ER; type: binding, human; details: 50 μM ER ligand
Experimental: 12 μL of FLAG M2 slurry were equilibrated with binding buffer (25 mM HEPES pH 7.4, 125 mM NaCl, 0.05% TWEEN-20). The resin was pelleted and excess buffer removed. 60 μL of fresh binding buffer was re-added, followed by addition of 15 pmol (2.5 μL ofa6 μM solution) of purified FLAG-UBR5 protein and incubated on a rotating wheel at 4°C for 60–90 minutes. The resin was pelleted, excess buffer removed, and 150 μL fresh binding buffer (supplemented with 50 μM ligand of interest or DMSO) added, followed by 150 pmol protein (binding partner protein of interest) and incubated for another 60 minutes. The resin was pelleted, excess buffer removed and washed with 400 μL of binding buffer (supplemented with ligand of interest or DMSO), and this process was repeated three times. The resin was pelleted, excess buffer removed and 45 μL of binding buffer supplemented with 1 mg/mL 3xFLAG peptide was added to elute proteins over 30 minutes on a rotating wheel at room temperature. The resin was pelleted, and 40 μL of the supernatant was collected and mixed with 12 μL of 5xSDS gel loading buffer. 6 μL of these samples were applied to SDS-PAGE on a 4–20% gradient gel (Biorad). The gel was transferred to a nitrocellulose membrane using the Trans-Blot Turbo Transfer System (Biorad). […]

[5] = tested on: GR and UBR5; assay: UBR5/GR interaction in cells (BRET); type: cell-based, human; details: ± dexamethasone, n = 3
Source text: Bioluminescence resonance energy transfer (BRET) experiments were done using the NanoBRET PPI kit (Promega, N1821) according to manufacturer’s instructions.

[6] = tested on: GR; assay: GR degradation (western blot A549; GFP-GR reporter); type: cell-based, human
Experimental: Reporter cell lines were seeded in triplicate at a density of 1 million cells/ml in 100 μl per well in a 96 well plate and measured once. Ligand was added by Digital Dispenser (Tecan), and incubated at 37°C for the appropriate time before reading by flow cytometry. Cells were analyzed for GFP vs mCherry expression. GFP expression was normalized to mCherry signal and ligand treatments were compared to DMSO controls.
Membranes were blocked for 30 minutes to 1 hour at room temperature in Odyssey Blocking Buffer/PBS (LI-COR Biosciences), and incubated with primary antibodies at 4 °C overnight. Stained membranes were washed three times in Tris-buffered saline with Tween 20 (TBS-T) and incubated for 1 hour at room temperature with secondary IRDye-conjugated antibodies (LI-COR Biosciences). Membranes were washed three times in TBS-T before imaging (Odyssey Imaging System, LI-COR Biosciences).

[7] = tested on: GR with NCOA2 and UBR5; assay: Co-immunoprecipitation time course for GR; type: cell-based, human; details: U937 GFP-GR, 0, 6, 12, 16, 24 h dexamethasone
Experimental: We performed time course co-immunoprecipitation experiments for GR and blotted for NCOA2, GR, and UBR5 at 0, 6, 12, 16, and 24 h following dexamethasone treatment. […] Unlike RARA, which binds constitutively to chromatin, GR is sequestered in the cytoplasm and rapidly translocates to the nucleus following agonist binding.[44],[45]
as §1

[8] = tested on: GR and UBR5 on chromatin in A549 cells; assay: ChIP-seq of GR and UBR5 in A549 cells; type: cell-based, human
Experimental: Cell lines were expanded (up to 50 million), treated with ligand, and incubated at 37 °C. Cells were pelleted by centrifugation for 5 minutes, washed twice with cold PBS, and resuspended, in 5 ml of room temperature PBS. 20 μl of 0.5M Disuccinimidyl glutarate (DSG) (ThermoFisher), was added and incubated for 30 minutes at room temperature. Cells were pelleted by centrifugation and resuspended in 8.325 ml of PBS and 8.325 ml of 2% formaldehyde and incubated for 30 minutes at room temperature. Cross-linking was quenched by the addition of 1665 μl of 1 M Tris-HCl pH 8.0 and 832.5 μl of 2.5 M glycine. Cells were pelleted and washed twice with PBS. Cross-linked cells were resuspended in LB1 Buffer (50mM HEPES-KOH, pH7.5, 140mM NaCl, 1mM EDTA, 10% Glycerol, 0.5% NP-40, 0.25% Triton X-100 in distilled water) and rotated for 10 minutes at 4C. Cells were pelleted and resuspended in LB2 (10mM Tris-HCl, pH 8.0, 200mM NaCl, 1mM EDTA, 0.5mM EGTA in distilled water) and rotated for 10 minutes at 4C. Cells were pelleted and resuspended in LB3 (10mM Tris-HCL, pH 8.0, 100mM NaCl, 1mM EDTA, 0.5mM EGTA, 0.1% Na-deoxycholate, 0.5% Na-Lauroylsarcosine, 1% Triton X-100, in distilled water) sonicated (Covaris, E220). […] Fragment length and concentrations were assessed using TapeStation (Agilent) and Qubit (ThermoFisher), and libraries were sequenced on an Illumina NextSeq 550 sequencer. […]

[9] = tested on: dexamethasone-regulated gene expression in A549 cells; assay: RNA sequencing of A549 cells; type: cell-based, human; details: A549, 0, 24, 48 h
Experimental: Cell lines were expanded, treated with ligand, and incubated at 37C. Cells were pelleted by centrifugation for 5 minutes, washed with cold PBS, and RNA was isolated by RNeasy kit (Qiagen) per manufacturer’s instructions. RNA was sent to Novogene for library preparation and sequencing, or prepared for sequencing (NEBNext, New England Biolabs) and sequenced on an Illumina NextSeq 550 sequencer.
Paired-end reads were aligned to the hg38.p13[81],[82] reference genome with the STAR[83] (v5.2.7b) aligner as part of the RSEM[99] command line tool. Gene transcript abundance was further quantified from aligned fragments using RSEM to generate a gene-by-sample matrix of expected counts. Differential expression was tested, as with the ChIP-seq data, using the DESeq[88],[93]2 and ashr[94] pipeline, this time calculating sample-specific scale factor offset using the method of median-ratio as implemented in the R package EBSeq[100] (v1.36.0). For plotting in heatmaps, genes were selected based on ChIP-seq peak annotation and subset.

Compound: C[C@]12CC[C@H]3[C@@H](CCC4=CC(=O)CC[C@@]43C)[C@@H]1CC[C@@H]2O [testosterone]
- AR stability / ligand-induced degradation [1]: stabilized by its endogenous ligand testosterone and does not undergo ligand-induced degradation

Compound: CN1C(=O)C=C[C@]2(C)[C@H]3CC[C@]4(C)[C@@H](C(=O)Nc5ccccc5Cl)CC[C@H]4[C@@H]3CC[C@@H]12 [CI-4AS-1]
- AR reporter degradation, significance ([2]; AR V713F V730L M734V (RXR matched)): **** (**** p<0.00005)
- AR reporter degradation, significance ([2]; AR V713I V730I M734I (RARA matched)): ** (**p<0.005)
- AR reporter degradation, significance ([2]; AR V713I V730L (GR matched)): **** (**** p<0.00005)
- degradation of mutant AR reporters ([2]; hydrophobic cleft matched to RARA, RXRA or GR): efficiently degraded
- degradation of wild-type AR reporter ([2]; wild-type AR): not degraded
- UBR5 binding to AR^RARA mutants [3]: strengthened binding in the presence of agonist

Compound: C[C@]12CC[C@@H]3c4ccc(O)cc4CC[C@H]3[C@@H]1CC[C@@H]2O [estradiol, beta-Estradiol]
- UBR5-ER interaction [4]: induced by estradiol

Compound: C[C@@H]1C[C@H]2[C@@H]3CCC4=CC(=O)C=C[C@]4(C)[C@@]3(F)[C@@H](O)C[C@]2(C)[C@@]1(O)C(=O)CO [dexamethasone]
- UBR5 binding to GR in cells [5]: promoted binding of UBR5 to GR in cells
- effect of UBR5 shRNAs on GR degradation ([6]; A549 western blot and reporter): rescued GR degradation
- GR reporter degradation with predicted degron (cleft) mutations ([6]; GFP-GR mutants, likewise mutation of the UBR5 HECT domain): impaired dexamethasone-induced GR degradation
- sequential binding of NCOA2 and UBR5 to GR [7]: GR sequentially bound NCOA2 and then UBR5
- GR ChIP-seq peaks ([8]; A549, 15 min and 24 h dexamethasone): strikingly gained 15 min after addition of dexamethasone and subsequently decreased following sustained (24 h) dexamethasone treatment
- UBR5 ChIP-seq peaks ([8]; A549, 15 min dexamethasone): strongly increased after 15 min of dexamethasone treatment
- effect of UBR5 knockdown on dexamethasone-regulated gene expression [9]: alter dexamethasone-regulated gene expression
